Measurements as given in patent publication US6716850B2, “Non-nucleoside reverse transcriptase inhibitors” (Medivir AB, priority 2001, dated 2004).
Read-outs that look alike come from different tables or passages of the source.

Legend:
[1] = test system: HIV-1IIIB (wild type); test: XTT assay in MT-4 cells infected with wild type HIV-1IIIB; type: cell-based
Protocol: Compounds of the invention are assayed for HIV activity, for example using multiple determinations with XTT in MT-4 cells (Weislow et al, J Nat Cancer Inst 1989, vol 81 no 8, 577 et seq), preferably including determinations in the presence of 40-50% human serum to indicate the contribution of protein binding. In short the XTT assay uses human T cell line MT4 cells grown in RPMI 1640 medium supplemented with 10% fetal calf serum (or 40-50% human serum as appropriate), penicillin and streptomycin seeded into 96 well microplates (2·10^4 cells/well) infected with 10-20 TCID50 per well of HIV-1IIIB (wild type) or mutant virus, such as those bearing RT lie 100, Cys 181 or Asn 103 mutations. Serially diluted test compounds are added to respective wells and the culture incubated at 37° C. in a CO2 enriched atmosphere and the viability of cells is determined at day five or six with XTT vital dye. Results are typically presented as ED50 μM.

[2] = target: T1, HIV-1 reverse transcriptase (Human immunodeficiency virus type 1 group M subtype B, UniProt P04585); test: activity of separated optical isomers (test not stated); settings: second eluting peak on chiral AGP column
T1 construct: active against reverse transcriptase, especially that of HIV-1

[3] = Human immunodeficiency virus 1, MT4, read-out: ED50
[4] = XTT assay, MT-4 cells, wild type HIV-1IIIB, read-out: ED50 (the source's name)

Work on `N#Cc1ccc(NC(=O)N[C@@H]2[C@@H]3COc4cc(F)cc(F)c4[C@@H]32)nc1` (relative stereo) [Example 23, 1-(5-Cyano-pyridin-2-yl)-3-(5,7-difluoro-1,1a,2,7b-tetrahydro-cyclopropa[c]chromen-1-yl)urea] yielded an EC50 [1, 3] of 7 nM.

In the case of “(+/−)-cis-1-(5-Cyano-3-methyl-pyridin-2-yl)-3-(4,7-difluoro-1,1a,2,7b-tetrahydro-cyclopropa[c]chromen-1-yl)-urea [Example 16]”, the EC50 [1, 4] is reported as 6 nM.

In the case of `O=C(Nc1ccc(Oc2ccccc2)cn1)N[C@@H]1[C@@H]2COc3c(F)ccc(F)c3[C@@H]21` (relative stereo) [Example 20, +/−cis-1-(4,7-Difluoro-1,1a,2,7b-tetrahydro-cyclopropa[c]chromen-1-yl)-3-(5-phenoxy-pyridin-2-yl)-urea], the EC50 [1, 4] is reported as 7 nM.

For `N#Cc1ccc(NC(=O)N[C@@H]2[C@@H]3COc4c(Br)ccc(F)c4[C@@H]32)nc1` [Example 24, cis-1-(4-Bromo-7-fluoro-1,1a,2,7b-tetrahydro-cyclopropa[c]chromen-1-yl)-3-(5-cyano-pyridin-2-yl)-urea], the EC50 [1, 3] was 20 nM.

In the case of `N#Cc1ccc(NC(=O)NC2C3Sc4ccccc4C23)nc1` (racemic) [Example 43, (+/−)cis N-[1a,6b-dihydro-1H-benzo[b]cyclopropa[d]thien-1-yl]-N′-(5-cyano-2-pyridinyl)-urea], the EC50 [1, 3] is reported as 2 nM.

For `O=C(Nc1ccc(Cl)cn1)N[C@H]1C2c3c(F)ccc(F)c3OC[C@H]21` (single isomer, unassigned; (-)) [Example 31, (−) cis-1-(5-Chloro-pyridin-2-yl)-3-(4,7-difluoro-1,1a,2,7b-tetrahydro-cyclopropa[c]chromen-1-yl)-urea], the EC50 [1, 3] was 2.5 nM and the “activity of the more slowly eluting isomer, typically negative rotation” value [2] was “particularly active”.

In the case of `N#Cc1ccc(NC(=O)N[C@@H]2[C@@H]3COc4c(F)ccc(F)c4[C@@H]32)nc1` [Example 30, (−)-cis-1-(5-Cyano-pyridin-2-yl)-3-(4,7-difluoro-1,1a,2,7b-tetrahydro-cyclopropa[c]chromen-1-yl)-urea], the EC50 [1, 3] is reported as 3 nM and the “activity of the more slowly eluting isomer, typically negative rotation” value [2] is reported as “particularly active”.

Compound “(+/−)-cis-1-(5-Bromo-pyridin-2-yl)-3-(4,7-difluoro-1,1a,2,7b-tetrahydro-cyclopropa[c]chromen-1-yl)-urea [Example 19]” has an EC50 [1, 4] of 10 nM.

`N#Cc1ccc(NC(=O)N[C@@H]2[C@@H]3COc4c(Cl)ccc(Cl)c4[C@@H]32)nc1` [Example 33, +/−-cis-N-(5-cyano-2-pyridinyl)-N′-(4,7-dichloro-1,1a,2,7b-tetrahydrocyclopropa[c]chromen-1-yl)urea] gave an EC50 [1, 3] of 9 nM.

Work on “(+/−)-cis-1-(4,7-Difluoro-1,1a,2,7b-tetrahydro-cyclopropa[c]chromen-1-yl)-3-(5-ethynyl-pyridin-2-yl)-urea [Example 18]” yielded an EC50 [1, 4] of 6 nM.

In the case of `N#Cc1ccc(NC(=O)NC2C3COc4c(Cl)ccc(F)c4C32)nc1` (racemic) [Example 7, (±)-cis-1-(5-Cyano-pyridin-2-yl)-3-(7-fluoro-4-chloro-1,1a,2,7b-tetrahydro-cyclopropa[c]chromen-1-yl)-urea], the EC50 [1, 4] is reported as 7 nM.
